The nature of this data set: Acute toxicity (LD50) in rats. Particulars: rat, in vivo. As to the method:
The compound for use as the active ingredient in the hepatic graft preservative composition and hepatic graft preserving method of this invention is a very safe substance with an extremely low toxic potential and, as such, can be used with advantage for the purposes of this invention. [e.g. the LD50 values of L-ascorbyl DL-α-tocopheryl phosphate potassium (hereinafter referred to briefly as EPC-K)≥5 g/kg p.o. (rats) and≥100 mg/kg i.v. (rats)].

For one compound, LD50 results are on record in patent publication US5660976A, “Method for preserving a liver by perfusion with or storage in a solution containing ascorbyl tocopheryl phosphodiester” (Senju Pharmaceutical Co., Ltd., priority 1994, dated 1997).

Regarding `Cc1c(C)c2c(c(C)c1OP(=O)(O)OC1=C(O)[C@@H]([C@@H](O)CO)OC1=O)CCC(C)(CCCC(C)CCCC(C)CCCC(C)C)O2` (mixture of isomers) [EPC-K, L-Ascorbyl DL-α-tocopheryl phosphate potassium], the LD50 (iv, i.v. (rats)) is no less than 100 mg/kg and the LD50 (po, p.o. (rats)) was no less than 5000 mg/kg.

In general, LD50 refers to the dose at which mortality reaches 50%. Lower therefore signals greater toxicity.
